Experimental data from article PMC11347369, “Synthesis and antibacterial action of 3’,6’-disubstituted spectinomycins” (The Journal of Antibiotics, 2024).
Values after ≈ are worked out from the molar mass of the structure shown.

How the values were obtained:
[1] = test system: M. smegmatis strain MC^2 155; experiment: MIC broth microdilution, M. smegmatis; format: cell-based, Mycobacterium smegmatis; conditions: Mycolicibacterium smegmatis, MC^2155, 72 h; M. smegmatis strain MC^2 155; 3 days; read-out: WT MIC
[2] = test system: M. abscessus ATCC 19977 ∆2780c; experiment: microbe, parasite or virus in culture; format: cell-based, Mycobacterium abscessus; conditions: Mycobacteroides abscessus, ATCC19977, 72 h, read-out: ∆2780c MIC
S. pneumoniae R6 = experiment: MIC broth microdilution, S. pneumoniae; format: cell-based; conditions: Streptococcus pneumoniae, read-out: Minimum Inhibitory Concentration
E. coli K12 [3] = experiment: microbe, parasite or virus in culture; conditions: Escherichia coli, K12, read-out: Minimum Inhibitory Concentration
[4] = test system: S. epidermidis ATCC 14990; experiment: MIC broth microdilution, S. epidermidis; format: cell-based; conditions: Staphylococcus epidermidis, ATCC14990; S. epidermidis ATCC 14990; read-out: Minimum Inhibitory Concentration
[5] = target: T1, M. smegmatis ribosomes (strain SZ380) (Mycolicibacterium smegmatis, UniProt A0QSG6); experiment: Mycobacterial cell-free translation inhibition assay; format: biochemical, Mycobacterium smegmatis
T1 construct: S30 extracts were prepared by addition of dithiothreitol (DTT) to 1 mM and centrifugation; endogenous in cells; host or cells: M. smegmatis strain SZ380, S30 cell extract
T1 sequence (A0QSG6 whole entry): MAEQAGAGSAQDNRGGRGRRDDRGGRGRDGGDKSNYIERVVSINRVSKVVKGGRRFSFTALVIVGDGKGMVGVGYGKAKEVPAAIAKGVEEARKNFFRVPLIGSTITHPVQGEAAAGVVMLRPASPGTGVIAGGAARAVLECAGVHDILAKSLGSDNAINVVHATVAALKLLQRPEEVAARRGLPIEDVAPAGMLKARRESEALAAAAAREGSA
Method: Mycobacterial cell-free translation inhibition assays were performed as described previously. In brief, M. smegmatis strain SZ380 bacterial cells were disrupted and emulsified with a microfluidizer processor (Microfluidics, Westwood, MA, USA) at 25,000 lb/in^2. S30 extracts were prepared by addition of dithiothreitol (DTT) to 1 mM and centrifugation at 30,000 × g at 4 °C. Translation reaction mixtures containing either test article or DMSO vehicle control and 4 μl of the S30 extract, 0.2 mM amino acid mix, 6 μg tRNA (Sigma), 0.4 μg hFluc mRNA, 0.3 μl protease inhibitor (complete, EDTA-free, Roche), 12 U RNAse inhibitor (Ribolock, Thermo Scientific), 6 μl S30 premix without amino acids (Promega), plus water to a final reaction volume of 15 μl were incubated for 1 h at 37 °C. The reaction was stopped on ice before adding 75 μl of luciferase assay reagent (Promega) and recording of luminescence. Regression analysis and IC50 calculations were performed using GraphPad Prism version 9.3.1 by using the equation [log(inhibitor) vs. response–Variable slope (four parameters)] with the fitting method: least squares (ordinary) fit. Y = Bottom + (Top-Bottom)/(1 + 10^((X-LogIC50))).

M. tuberculosis H37Rv [6] = test system: M. tuberculosis H37Rv
[7] = test system: K. pneumoniae ATCC 700603; experiment: MIC broth microdilution, K. pneumoniae; format: cell-based, Klebsiella pneumoniae; conditions: K. pneumoniae ATCC 700603
M. abscessus ATCC 19977 [8] = test system: M. abscessus ATCC 19977
E. coli K12 ∆tolC = experiment: microbe, parasite or virus in culture; format: cell-based; conditions: Escherichia coli, read-out: Minimum Inhibitory Concentration
P. aeruginosa ATCC 15692 = experiment: MIC broth microdilution, P. aeruginosa; format: cell-based, Pseudomonas aeruginosa; conditions: P. aeruginosa ATCC 15692
M. tuberculosis H37Rv [9] = experiment: microbe, parasite or virus in culture; conditions: Mycobacterium tuberculosis, 168 h, read-out: WT MIC
S. aureus USA300 = experiment: MIC broth microdilution, S. aureus; format: cell-based; conditions: Staphylococcus aureus; S. aureus USA300; read-out: Minimum Inhibitory Concentration
[10] = test system: M. tuberculosis H37Rv ∆1258c; experiment: microbe, parasite or virus in culture; format: cell-based; conditions: Mycobacterium tuberculosis, 168 h
Gram-positive species = experiment: MIC, Gram-positive panel compared to SPC; format: cell-based; conditions: against all Gram-positive species
S. pyogenes ATCC 700294 = experiment: MIC broth microdilution, S. pyogenes; format: cell-based; conditions: Streptococcus pyogenes, ATCC700294; S. pyogenes ATCC 700294; read-out: Minimum Inhibitory Concentration
A. baumannii ATCC 19606 = experiment: MIC broth microdilution, A. baumannii; format: cell-based, Acinetobacter baumannii; conditions: A. baumannii ATCC 19606
E. coli K12 [11] = test system: E. coli K12
E. faecium ATCC 19434 = experiment: MIC broth microdilution, E. faecium; format: cell-based; conditions: Enterococcus faecium, ATCC19434; E. faecium ATCC 19434; read-out: Minimum Inhibitory Concentration
M. abscessus ATCC 19977 [12] = experiment: microbe, parasite or virus in culture; conditions: Mycobacteroides abscessus, ATCC19977, 72 h, read-out: WT MIC
E. faecalis ATCC 29212 = experiment: MIC broth microdilution, E. faecalis; format: cell-based; conditions: Enterococcus faecalis, ATCC29212; E. faecalis ATCC 29212; read-out: Minimum Inhibitory Concentration

In the case of `CCCC[C@@H]1CC(=O)[C@]2(O)O[C@@H]3[C@@H](NC)[C@@H](O)[C@@H](NC)[C@H](O)[C@H]3O[C@@H]2O1` [TroSPC (2), trospectomycin, reference compound], the MIC [1] is reported as 32 µg/mL (≈ 85.5 µM), the MIC [2] is reported as 16 µg/mL (≈ 42.7 µM) and the MIC (S. pneumoniae R6) is reported as 4 µg/mL (≈ 10.7 µM). It also gave an MIC (E. coli K12 [3]) greater than 64 µg/mL, an MIC [4] of 32 µg/mL (≈ 85.5 µM) and an IC50 [5] of 510 nM. The “Efflux Ratio” value (M. tuberculosis H37Rv [6]) was 16, the “Minimum Inhibitory Concentration” value [7] was greater than 64 µg/mL and the MIC ([7]; Klebsiella pneumoniae, ATCC700603, read-out: Minimum Inhibitory Concentration) was greater than 64 µg/mL. The “Efflux Ratio” value (M. abscessus ATCC 19977 [8]) was 4, the MIC (E. coli K12 ∆tolC) was 16 µg/mL (≈ 42.7 µM) and the “Minimum Inhibitory Concentration” value (P. aeruginosa ATCC 15692) was greater than 64 µg/mL. The MIC (P. aeruginosa ATCC 15692; Pseudomonas aeruginosa, ATCC15692, read-out: Minimum Inhibitory Concentration) was greater than 64 µg/mL, the MIC (M. tuberculosis H37Rv [9]) was 32 µg/mL (≈ 85.5 µM) and the MIC (S. aureus USA300) was 64 µg/mL (≈ 171 µM). The MIC [10] was 2 µg/mL (≈ 5.34 µM), the “increase in activity compared to SPC” value (Gram-positive species) was greater than 4 fold and the MIC (S. pyogenes ATCC 700294) was 4 to 8 µg/mL (≈ 10.7 to 21.4 µM). For the same compound, the “Minimum Inhibitory Concentration” value (A. baumannii ATCC 19606) was greater than 64 µg/mL, the MIC (A. baumannii ATCC 19606; Acinetobacter baumannii, ATCC19606, read-out: Minimum Inhibitory Concentration) was greater than 64 µg/mL and the “E. coli Efflux Ratio” value (E. coli K12 [11]) was greater than 4. It also gave an MIC (E. faecium ATCC 19434) of 64 µg/mL (≈ 171 µM), an MIC (M. abscessus ATCC 19977 [12]) of 64 µg/mL (≈ 171 µM) and an MIC (E. faecalis ATCC 29212) of 64 µg/mL (≈ 171 µM).
